This passage reports IC50 results from patent publication US12202818B2, “Compounds and methods for CD73 modulation and indications therefor” (Opna Bio SA, priority 2020, dated 2025).

One test deals with T1, human CD73 (Homo sapiens, UniProt P21589).
T1 construct: expressed in transfected cells
T1 sequence (P21589 27-549): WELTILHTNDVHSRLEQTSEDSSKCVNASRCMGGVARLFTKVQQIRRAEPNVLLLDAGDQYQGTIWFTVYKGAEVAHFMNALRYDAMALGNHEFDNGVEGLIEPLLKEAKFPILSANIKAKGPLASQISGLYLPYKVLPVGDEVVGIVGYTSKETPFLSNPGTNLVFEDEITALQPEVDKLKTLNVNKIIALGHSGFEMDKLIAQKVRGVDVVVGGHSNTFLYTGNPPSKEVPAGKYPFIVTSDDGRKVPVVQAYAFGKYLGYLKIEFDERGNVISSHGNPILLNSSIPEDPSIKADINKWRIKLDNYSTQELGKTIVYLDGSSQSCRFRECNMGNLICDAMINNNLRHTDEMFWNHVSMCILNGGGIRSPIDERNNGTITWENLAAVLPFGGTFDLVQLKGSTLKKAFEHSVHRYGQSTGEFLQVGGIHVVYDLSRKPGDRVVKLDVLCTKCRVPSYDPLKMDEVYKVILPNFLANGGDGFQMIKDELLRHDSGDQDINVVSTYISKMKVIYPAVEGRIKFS
The test can be described thus: Inhibitor activity against CD73 in cell based assay (CD73 expressing CHO-K1 cells). The conditions noted are these: CHO-K1 cells expressing human CD73, 150 μM AMP, 4 hours of incubation; read-out: CHO-K1 CELL_VARIANT: CD73 IC50. Here is the method:
Determine Inhibitor Activity Against CD73 in Cell Based Assay
CD73 expressing CHO-K1 cell clones were generated upon stable transfection of a plasmid expressing human CD73 under the control of CMV promoter. Cells were selected in Ham's F-12K (Kaighn's) media supplemented with 10% fetal bovine serum and 1 mg/ml G418 at 37° C. in a humidified incubator supplied with 5% CO2. The assays were performed as follows. Cells were seeded in a 96 well plate in 50 μL of culture media at a density of 1×10^4 per well. Compound at a maximal concentration of 5 mM was serially diluted 1:3 in DMSO for a total of 8 point titration. A 2 μL aliquot of each dilution point was added to […] culture media and 25 µL was added to each well, providing 10 μM compound at the maximum concentration point. AMP was diluted in culture media and 25 μL was added to each well with a final concentration of 150 μM. 4 wells containing 0.2% DMSO treated cells and AMP served as high controls and 4 wells containing media only with 0.2% DMSO and AMP served as low controls. After 4 hours of incubation, 20 μL of the supernatant was transferred to a 384 well plate. AMP level in supernatant was measured indirectly by adding 5 μL of CellTiter-Glo® 2.0 reagent and 5 μL of ATP with a final concentration of 1 μM. Following incubation of plate at room temperature for 30 minutes, luminescent signal was read on a Tecan plate reader. The percentage inhibition at individual concentrations relative to high and low controls was calculated. The data were analyzed by using nonlinear regression to generate ICso values.

In test [1] the target is T2, Human CD73 (amino acid residues 27-549) (Homo sapiens, UniProt P21589).
T2 construct: Human CD73 (amino acid residues 27-549); His tag (N); made in house; host or cells: E. coli
T2 sequence (P21589 27-549): T1 sequence (P21589 27-549)
The test can be described thus: CD73 enzymatic assay (luciferase-based indirect assay, CellTiter-Glo). The test is classed as biochemical. The conditions noted are these: 0.4 nM CD73, 150 μM AMP, 1 hour at room temperature. As for the experimental part: CD73 enzymatic activity was measured in a luciferase-based indirect assay using CellTiter-Glo® system from Promega. The luciferase reaction in the presence of ATP is inhibited by AMP, a primary substrate of CD73. Addition of CD73 enzyme to the reaction converts AMP to adenosine, and release the inhibition, producing a luminescent signal. Inhibition of CD73 leads to the decrease of this luminescent signal.
Human CD73 (amino acid residues 27-549) with N-Terminal His tag was purified in E. coli. All the assay components were prepared in 50 mM HEPEs buffer (pH 7.4) with 0.01% Tween-20. The CD73 enzymatic assay was performed using 0.4 nM CD73 and 150 μM AMP. 9.5 μL of CD73 protein and 9.5 μL of AMP were added to the wells of a 384 well plate containing lpL of various concentrations of test compound or DMSO vehicle and incubated for 1 hour at room temperature. 16 wells containing CD73, AMP and 5% DMSO served as high control. 16 wells containing AMP and 5% DMSO served as low control. Enzymatic reaction was stopped and AMP level was measured indirectly by adding 5 μL of CellTiter-Glo® 2.0 reagent and 5 μL of ATP with a final concentration of 1 μM. Following incubation of the plate at room temperature for 30 minutes, luminescent signal was read on a Tecan plate reader. The percentage inhibition at individual concentrations relative to high and low controls was calculated. The data were analyzed by using nonlinear regression to generate IC50 values.

In the case of `Cc1nn(CC(O)C(F)(F)F)c(C)c1-c1ccnc(O[C@@H]2CCN(c3cn[nH]c(=O)c3Cl)C2)c1` (stereo partly drawn) [P-0039, 4-chloro-5-((3R)-3-((4-(3,5-dimethyl-1-(3,3,3-trifluoro-2-hydroxypropyl)-1H-pyrazol-4-yl)pyridin-2-yl)oxy)pyrrolidin-1-yl)pyridazin-3(2H)-one], the IC50 (on human CD73; in test [1]) was 0.001 to 10 µM in each case.

As for `Cc1nn(CC(=O)NC2CC2)c(C)c1-c1ccnc(O[C@@H]2CCN(c3cn[nH]c(=O)c3Cl)C2)c1` [P-0040, (R)-2-(4-(2-((1-(5-chloro-6-oxo-1,6-dihydropyridazin-4-yl)pyrrolidin-3-yl)oxy)pyridin-4-yl)-3,5-dimethyl-1H-pyrazol-1-yl)-N-cyclopropylacetamide], the IC50 (on human CD73; in test [1]) was 0.001 to 10 µM throughout.

For `CNC(=O)Cn1nc(C)c(-c2ccnc(O[C@@H]3CCN(c4cn[nH]c(=O)c4Cl)C3)c2)c1C` [P-0041, (R)-2-(4-(2-((1-(5-chloro-6-oxo-1,6-dihydropyridazin-4-yl)pyrrolidin-3-yl)oxy)pyridin-4-yl)-3,5-dimethyl-1H-pyrazol-1-yl)-N-methylacetamide], the half-maximal inhibitory concentration (IC50) (at human CD73; in test [1]) was 0.001 to 10 µM in each case.

`Cc1nn(CC2CCCO2)c(C)c1-c1ccnc(O[C@@H]2CCN(c3cn[nH]c(=O)c3Cl)C2)c1` (stereo partly drawn) [P-0042, 4-chloro-5-((3R)-3-((4-(3,5-dimethyl-1-((tetrahydrofuran-2-yl)methyl)-1H-pyrazol-4-yl)pyridin-2-yl)oxy)pyrrolidin-1-yl)pyridazin-3(2H)-one]: the IC50 (at human CD73; in test [1]) was 0.001 to 10 µM in each case.

For `Cc1nn(CC2CCCOC2)c(C)c1-c1ccnc(O[C@@H]2CCN(c3cn[nH]c(=O)c3Cl)C2)c1` (stereo partly drawn) [P-0043, 4-chloro-5-((3R)-3-((4-(3,5-dimethyl-1-((tetrahydro-2H-pyran-3-yl)methyl)-1H-pyrazol-4-yl)pyridin-2-yl)oxy)pyrrolidin-1-yl)pyridazin-3(2H)-one], the half-inhibitory concentration (IC50) (at human CD73; in test [1]) was 0.001 to 10 µM each time.

Consider `Cc1nn(CCC#N)c(C)c1-c1ccnc(O[C@@H]2CCN(c3cn[nH]c(=O)c3Cl)C2)c1` [P-0044, (R)-3-(4-(2-((1-(5-chloro-6-oxo-1,6-dihydropyridazin-4-yl)pyrrolidin-3-yl)oxy)pyridin-4-yl)-3,5-dimethyl-1H-pyrazol-1-yl)propanenitrile], for which the IC50 (at human CD73; in test [1]) was 0.001 to 10 µM in each case.

As to `Cc1nn(CC(=O)O)c(C)c1-c1ccnc(O[C@@H]2CCN(c3cn[nH]c(=O)c3Cl)C2)c1` [P-0045, (R)-2-(4-(2-((1-(5-chloro-6-oxo-1,6-dihydropyridazin-4-yl)pyrrolidin-3-yl)oxy)pyridin-4-yl)-3,5-dimethyl-1H-pyrazol-1-yl)acetic acid], the 50% inhibitory concentration (IC50) (at human CD73; in test [1]) was 0.001 to 10 µM in each case.

With `N#CC1CCC(c2ccnc(O[C@@H]3CCN(c4cnn(CCO)c(=O)c4Cl)C3)c2)CC1` (stereo partly drawn) [P-0046, (R)-4-(2-((1-(5-chloro-1-(2-hydroxyethyl)-6-oxo-1,6-dihydropyridazin-4-yl)pyrrolidin-3-yl)oxy)pyridin-4-yl)cyclohexane-1-carbonitrile], the IC50 (at human CD73; in test [1]) was 0.001 to 10 µM each time.

`O=C(O)C1CCC(c2ccnc(O[C@@H]3CCN(c4cn[nH]c(=O)c4Cl)C3)c2)CC1` (stereo partly drawn) [P-0047, (R)-4-(2-((1-(5-chloro-6-oxo-1,6-dihydropyridazin-4-yl)pyrrolidin-3-yl)oxy)pyridin-4-yl)cyclohexane-1-carboxylic acid]: the concentration for half-maximal inhibition (IC50) (at human CD73; in test [1]) was 0.001 to 10 µM throughout.

For `O=c1[nH]ncc(N2CC[C@@H](Oc3cc(C4CCN(CC(F)(F)F)CC4)ccn3)C2)c1Cl` [P-0048, (R)-4-chloro-5-(3-((4-(1-(2,2,2-trifluoroethyl)piperidin-4-yl)pyridin-2-yl)oxy)pyrrolidin-1-yl)pyridazin-3(2H)-one], the IC50 (at human CD73; in test [1]) was 0.001 to 10 µM in each case.

With `N#CC1CC2CCC(C1)N2c1ccnc(O[C@@H]2CCN(c3cn[nH]c(=O)c3Cl)C2)c1` (stereo partly drawn) [P-0049, 8-(2-(((R)-1-(5-chloro-6-oxo-1,6-dihydropyridazin-4-yl)pyrrolidin-3-yl)oxy)pyridin-4-yl)-8-azabicyclo[3.2.1]octane-3-carbonitrile], the IC50 (at human CD73; in test [1]) was 0.001 to 10 µM each time.

Regarding `O=C(O)C1CC=C(c2ccnc(O[C@@H]3CCN(c4cn[nH]c(=O)c4Cl)C3)c2)CC1` (stereo partly drawn) [P-0050, 4-(2-(((R)-1-(5-chloro-6-oxo-1,6-dihydropyridazin-4-yl)pyrrolidin-3-yl)oxy)pyridin-4-yl)cyclohex-3-ene-1-carboxylic acid], the IC50 (on human CD73; in test [1]) was 0.001 to 10 µM in each case.

For `Cc1noc(C)c1-c1ccnc(O[C@@H]2CCN(c3cn[nH]c(=O)c3C(F)(F)F)C2)c1` [P-0051, (R)-5-(3-((4-(3,5-dimethylisoxazol-4-yl)pyridin-2-yl)oxy)pyrrolidin-1-yl)-4-(trifluoromethyl)pyridazin-3(2H)-one], the half-maximal inhibitory concentration (IC50) (on human CD73; in test [1]) was 0.001 to 10 µM in each case.

Regarding `Cc1nn(CC2CC(C#N)C2)c(C)c1-c1cc(O[C@@H]2CCN(c3cn[nH]c(=O)c3Cl)C2)ncn1` (stereo partly drawn) [P-0052, (R)-3-((4-(6-((1-(5-chloro-6-oxo-1,6-dihydropyridazin-4-yl)pyrrolidin-3-yl)oxy)pyrimidin-4-yl)-3,5-dimethyl-1H-pyrazol-1-yl)methyl)cyclobutane-1-carbonitrile], the figures for the IC50 (on human CD73; in test [1]) were 10 to 100 µM and 0.001 to 10 µM, respectively.

For `CCC1(Cn2nc(C)c(-c3ccnc(O[C@@H]4CCN(c5cn[nH]c(=O)c5Cl)C4)c3)c2C)COC1` [P-0054, (R)-4-chloro-5-(3-((4-(1-((3-ethyloxetan-3-yl)methyl)-3,5-dimethyl-1H-pyrazol-4-yl)pyridin-2-yl)oxy)pyrrolidin-1-yl)pyridazin-3(2H)-one], the half-inhibitory concentration (IC50) (at human CD73; in test [1]) was 0.001 to 10 µM each time.

Turning to `COC(=O)C1CC(Cn2nc(C)c(-c3ccnc(O[C@@H]4CCN(c5cn[nH]c(=O)c5Cl)C4)c3)c2C)C1` (stereo partly drawn) [P-0055, methyl (R)-3-((4-(2-((1-(5-chloro-6-oxo-1,6-dihydropyridazin-4-yl)pyrrolidin-3-yl)oxy)pyridin-4-yl)-3,5-dimethyl-1H-pyrazol-1-yl)methyl)cyclobutane-1-carboxylate], the IC50 (on human CD73; in test [1]) was 0.001 to 10 µM each time.

Regarding `Cc1nn(CC2CC(C(N)=O)C2)c(C)c1-c1ccnc(O[C@@H]2CCN(c3cn[nH]c(=O)c3Cl)C2)c1` (stereo partly drawn) [P-0056, (R)-3-((4-(2-((1-(5-chloro-6-oxo-1,6-dihydropyridazin-4-yl)pyrrolidin-3-yl)oxy)pyridin-4-yl)-3,5-dimethyl-1H-pyrazol-1-yl)methyl)cyclobutane-1-carboxamide], the half-maximal inhibitory concentration (IC50) (at human CD73; in test [1]) was 0.001 to 10 µM throughout.

As for `Cc1nn(CC2CC(C#N)C2)c(C)c1-c1ccnc(O[C@@H]2CCN(c3cn[nH]c(=O)c3Cl)C2)c1` (stereo partly drawn) [P-0057, (R)-3-((4-(2-((1-(5-chloro-6-oxo-1,6-dihydropyridazin-4-yl)pyrrolidin-3-yl)oxy)pyridin-4-yl)-3,5-dimethyl-1H-pyrazol-1-yl)methyl)cyclobutane-1-carbonitrile], the 50% inhibitory concentration (IC50) (on human CD73; in test [1]) was 0.001 to 10 µM in each case.

The term IC50 denotes the concentration at which inhibition is half-maximal.
